Measurements reported in patent US11629171B2, “Beta-hairpin peptidomimetics” (POLYPHOR AG, priority 2017, dated 2023).
≈ marks a conversion by molar mass, not a printed value. Where a SMILES comes first, the peptide text is derived from it. Bridges are numbered along the chain shown (N, C = ends). Roman numbers before positions name the chains, in order. [ ]: non-standard residue; d: D form. The star is where a group is joined. Thr(ol) = C[C@@H](O)[C@H](N)CO; Tle = CC(C)(C)[C@H](N)C(=O)O; NMeV = CN[C@H](C(=O)O)C(C)C; Hiv = CC(C)[C@H](O)C(=O)O; dDab = NCC[C@@H](N)C(=O)O; hSer = N[C@@H](CCO)C(=O)O; NHCH(CH2OH)2 = OCC(CO)N*; Orn = NCCC[C@H](N)C(=O)O; Dab = NCC[C@H](N)C(=O)O; Dap = NC[C@H](N)C(=O)O

What was measured:
Assay type in all cases: cell-based
[1] = test system: Enterobacter cloacae 848840; conditions: 848840
Procedure, shortened: (§1)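 Broth microdilution per CLSI; MH-II (cation-adjusted) + 0.002% P-80 final; ~10^6 CFU/mL inoculum; 2-fold peptide series; 35° C, 18-20 h; MIC = no visible growth, μg/mL.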

[2] = test system: Escherichia coli ATCC 25922; conditions: ATCC 25922
Procedure, shortened: as §1

[3] = test system: Acinetobacter baumannii 872842; conditions: 872842
Procedure, shortened: as §1

[4] = test system: Pseudomonas aeruginosa ATCC 27853; conditions: ATCC 27853
Procedure, shortened: as §1

[5] = test system: Klebsiella pneumoniae SSI #3010; conditions: SSI #3010
Procedure, shortened: as §1

[6] = test system: Klebsiella pneumoniae 968733; conditions: 968733
Procedure, shortened: as §1

[7] = test system: Acinetobacter baumannii DSM 30008; conditions: DSM 30008
Procedure, shortened: as §1

Escherichia coli 926415 = conditions: 926415
Procedure, shortened: as §1

[8] = test system: human red blood cells (hRBC); experiment: Hemolysis; conditions: red cells of human, 1 h, 200
Procedure, shortened: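 Percent lysis of human red cells was derived from OD540 of the supernatant, referenced to 2% Triton X-100, after a 1 h, 37° C incubation of 20% (v/v) cells with 200 μg/mL peptide.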

MIC [1] [µg/mL]	MIC [2] [µg/mL]	MIC [3] [µg/mL]	MIC [4] [µg/mL]	MIC [5] [µg/mL]	MIC [6] [µg/mL]	MIC [7] [µg/mL]	MIC (Escherichia coli 926415) [µg/mL]	Escherichia coli ATCC 25922 MIC [2] [µg/mL]	Pseudomonas aeruginosa ATCC 27853 MIC [4] [µg/mL]	Klebsiella pneumoniae SSI #3010 MIC [5] [µg/mL]	Acinetobacter baumannii DSM 30008 MIC [7] [µg/mL]	Compound	Hemolysis at 200 μg/mL [8] [%]
0.5 (≈ 0.206 µM)	0.25 (≈ 0.103 µM)	0.25 (≈ 0.103 µM)	0.125 (≈ 0.0515 µM)	0.125 (≈ 0.0515 µM)	1 (≈ 0.412 µM)	0.5 (≈ 0.206 µM)	0.5 (≈ 0.206 µM)	–	–	–	–	CN[C@H](C(=O)N[C@H]1CSSC[C@@H](C(=O)N[C@@H](CO)C(N)=O)NC(=O)[C@H](C(C)(C)C)NC(=O)[C@H](CCO)NC(=O)[C@H](Cc2c[nH]c3ccccc23)NC(=O)[C@H](CCO)NC(=O)[C@@H](CCN)NC(=O)[C@H](CCC(=O)N[C@@H](CCN)C(=O)N[C@H](C(=O)N[C@@H](CCN)C(=O)N[C@H]2CCNC(=O)[C@H]([C@@H](C)O)NC(=O)[C@H](CCN)NC(=O)[C@H](CCN)NC(=O)[C@H](CC(C)C)NC(=O)[C@@H](CC(C)C)NC(=O)[C@H](CCN)NC2=O)[C@@H](C)O)NC(=O)[C@H](CCN)NC(=O)[C@H](Cc2ccc(O)cc2)NC1=O)C(C)C [Ex. 51] (I: H-[NMeV]CY[Dab]E[dDab][hSer]W[hSer][Tle]CS-NH2 / II: [Dab]T[Dab][Dab][Dab][dL]L[Dab][Dab]T; disulfide I:2-I:11; amide I:5-II:N; lactam II:4-II:C)	<1
1 (≈ 0.43 µM)	0.125 (≈ 0.0537 µM)	0.125 (≈ 0.0537 µM)	0.25 (≈ 0.107 µM)	0.125 (≈ 0.0537 µM)	0.5 (≈ 0.215 µM)	0.0625 (≈ 0.0268 µM)	0.5 (≈ 0.215 µM)	–	–	–	–	CC(C)C[C@@H]1NC(=O)[C@@H](CC(C)C)NC(=O)[C@H](CCN)NC(=O)[C@@H](NC(=O)[C@H](CN)NC(=O)[C@@H](NC(=O)[C@H](CCN)NC(=O)CC[C@@H]2NC(=O)[C@@H](CCN)NC(=O)CNC(=O)[C@@H](NC(=O)[C@H](Cc3ccc(O)cc3)NC(=O)[C@@H](NC(=O)[C@@H](O)C(C)C)[C@@H](C)O)CSSC[C@@H](C(=O)N[C@H](C(=O)N[C@@H](C)C(=O)N[C@H](CO)[C@@H](C)O)C(C)(C)C)NC(=O)[C@H](Cc3c[nH]c4ccccc34)NC2=O)[C@@H](C)O)CCNC(=O)[C@H]([C@@H](C)O)NC(=O)[C@H](CCN)NC(=O)[C@H](CCN)NC1=O [Ex. 213] (I: H-[Hiv]TYCG[dDab]EWC[Tle]A[Thr(ol)] / II: [Dab]T[Dap][Dab][Dab][dL]L[Dab][Dab]T; disulfide I:4-I:9; amide I:7-II:N; lactam II:4-II:C)	<1
0.125 (≈ 0.0539 µM)	0.125 (≈ 0.0539 µM)	4 (≈ 1.72 µM)	0.25 (≈ 0.108 µM)	0.125 (≈ 0.0539 µM)	8 (≈ 3.45 µM)	0.125 (≈ 0.0539 µM)	8 (≈ 3.45 µM)	–	–	–	–	CC(=O)N[C@H](C(=O)N[C@H]1CCCNC(=O)[C@@H](CCN)NC(=O)[C@H](C(C)(C)C)NC(=O)[C@H](CO)NC(=O)[C@H](Cc2c[nH]c3ccccc23)NC(=O)[C@H](CCO)NC(=O)[C@@H](CCN)NC(=O)[C@H](CCC(=O)N[C@@H](CCN)C(=O)N[C@H](C(=O)N[C@@H](CN)C(=O)N[C@H]2CCNC(=O)[C@H]([C@@H](C)O)NC(=O)[C@H](CCN)NC(=O)[C@H](CCN)NC(=O)[C@H](CC(C)C)NC(=O)[C@@H](CC(C)C)NC(=O)[C@H](CCN)NC2=O)[C@@H](C)O)NC(=O)[C@H](CO)NC(=O)[C@H](Cc2ccc(O)cc2)NC1=O)C(C)C [Ex. 28] (I: Ac-V[Orn]YSE[dDab][hSer]WS[Tle][dDab] / II: [Dab]T[Dap][Dab][Dab][dL]L[Dab][Dab]T; lactam I:2-I:C, II:4-II:C; amide I:5-II:N)	<1
4 (≈ 1.71 µM)	0.125 (≈ 0.0534 µM)	0.125 (≈ 0.0534 µM)	0.5 (≈ 0.213 µM)	0.125 (≈ 0.0534 µM)	2 (≈ 0.854 µM)	0.0625 (≈ 0.0267 µM)	0.25 (≈ 0.107 µM)	–	–	–	–	CC(C)C[C@@H]1NC(=O)[C@@H](CC(C)C)NC(=O)[C@H](CCN)NC(=O)[C@@H](NC(=O)[C@H](CN)NC(=O)[C@@H](NC(=O)[C@H](CCN)NC(=O)CC[C@@H]2NC(=O)CNC(=O)[C@H](CCCN)NC(=O)[C@H](CCN)NC(=O)[C@H](Cc3ccc(O)cc3)NC(=O)[C@@H](NC(=O)[C@@H](O)C(C)C)CSSC[C@@H](C(=O)NC(CO)CO)NC(=O)[C@H](C(C)(C)C)NC(=O)[C@H](CO)NC(=O)[C@H](Cc3c[nH]c4ccccc34)NC2=O)[C@@H](C)O)CCNC(=O)[C@H]([C@@H](C)O)NC(=O)[C@H](CCN)NC(=O)[C@H](CCN)NC1=O [Ex. 173] (I: H-[Hiv]CY[Dab][Orn]GEWS[Tle]C-{NHCH(CH2OH)2} / II: [Dab]T[Dap][Dab][Dab][dL]L[Dab][Dab]T; disulfide I:2-I:11; amide I:7-II:N; lactam II:4-II:C)	<1
0.125 (≈ 0.0518 µM)	–	0.0625 (≈ 0.0259 µM)	–	–	0.0625 (≈ 0.0259 µM)	–	0.0625 (≈ 0.0259 µM)	0.01562	0.0625	0.0625	0.01562	CC[C@H](C)[C@@H]1NC(=O)[C@H](CO)NC(=O)[C@H](Cc2c[nH]c3ccccc23)NC(=O)[C@H](CO)NC(=O)[C@@H](CCN)NC(=O)[C@H](CCC(=O)N[C@@H](CCN)C(=O)N[C@H](C(=O)N[C@@H](CN)C(=O)N[C@H]2CCNC(=O)[C@H]([C@@H](C)O)NC(=O)[C@H](CCN)NC(=O)[C@H](CCN)NC(=O)[C@H](CC(C)C)NC(=O)[C@@H](CC(C)C)NC(=O)[C@H](CCN)NC2=O)[C@@H](C)O)NC(=O)[C@H](CCN)NC(=O)[C@H](Cc2ccc(O)cc2)NC(=O)[C@@H](NC(=O)[C@@H](NC(C)=O)C(C)C)CSSC[C@@H](C(=O)N[C@@H](CO)C(N)=O)NC1=O [Ex. 315] (I: Ac-VCY[Dab]E[dDab]SWSICS-NH2 / II: [Dab]T[Dap][Dab][Dab][dL]L[Dab][Dab]T; disulfide I:2-I:11; amide I:5-II:N; lactam II:4-II:C)	2
0.25 (≈ 0.108 µM)	0.0625 (≈ 0.027 µM)	0.0625 (≈ 0.027 µM)	0.125 (≈ 0.0541 µM)	0.125 (≈ 0.0541 µM)	0.25 (≈ 0.108 µM)	0.125 (≈ 0.0541 µM)	0.5 (≈ 0.216 µM)	–	–	–	–	CC(=O)N[C@H](C(=O)N[C@H]1CSSC[C@@H](C(N)=O)NC(=O)[C@H](C(C)(C)C)NC(=O)[C@H](CO)NC(=O)[C@H](Cc2c[nH]c3ccccc23)NC(=O)[C@H](CO)NC(=O)[C@@H](CCN)NC(=O)[C@H](CCC(=O)N[C@@H](CCN)C(=O)N[C@H](C(=O)N[C@@H](CN)C(=O)N[C@H]2CCNC(=O)[C@H]([C@@H](C)O)NC(=O)[C@H](CCN)NC(=O)[C@H](CCN)NC(=O)[C@H](CC(C)C)NC(=O)[C@@H](CC(C)C)NC(=O)[C@H](CCN)NC2=O)[C@@H](C)O)NC(=O)[C@H](CN)NC(=O)[C@H](Cc2ccc(O)cc2)NC1=O)C(C)C [Example 8] (I: Ac-VCY[Dap]E[dDab]SWS[Tle]C-NH2 / II: [Dab]T[Dap][Dab][Dab][dL]L[Dab][Dab]T; disulfide I:2-I:11; amide I:5-II:N; lactam II:4-II:C)	<1
0.125 (≈ 0.0518 µM)	0.0625 (≈ 0.0259 µM)	0.125 (≈ 0.0518 µM)	0.125 (≈ 0.0518 µM)	0.0625 (≈ 0.0259 µM)	0.125 (≈ 0.0518 µM)	0.125 (≈ 0.0518 µM)	0.0625 (≈ 0.0259 µM)	–	–	–	–	CC(=O)N[C@@H](CCN)C(=O)N[C@H](C(=O)N[C@H]1CSSC[C@@H](C(N)=O)NC(=O)[C@H](C(C)(C)C)NC(=O)[C@H](CO)NC(=O)[C@H](Cc2c[nH]c3ccccc23)NC(=O)[C@H](CO)NC(=O)[C@@H](CCN)NC(=O)[C@H](CCC(=O)N[C@@H](CCN)C(=O)N[C@H](C(=O)N[C@@H](CN)C(=O)N[C@H]2CCNC(=O)[C@H]([C@@H](C)O)NC(=O)[C@H](CCN)NC(=O)[C@H](CCN)NC(=O)[C@H](CC(C)C)NC(=O)[C@@H](CC(C)C)NC(=O)[C@H](CCN)NC2=O)[C@@H](C)O)NC(=O)[C@H](CN)NC(=O)[C@H](Cc2ccc(O)cc2)NC1=O)C(C)C [Ex. 125] (I: Ac-[Dab]VCY[Dap]E[dDab]SWS[Tle]C-NH2 / II: [Dab]T[Dap][Dab][Dab][dL]L[Dab][Dab]T; disulfide I:3-I:12; amide I:6-II:N; lactam II:4-II:C)	2

Compound	MIC [1] [µg/mL]	MIC [2] [µg/mL]	MIC [3] [µg/mL]	MIC [4] [µg/mL]	MIC [5] [µg/mL]	MIC [6] [µg/mL]	MIC [7] [µg/mL]	MIC (Escherichia coli 926415) [µg/mL]	Escherichia coli ATCC 25922 MIC [2] [µg/mL]	Pseudomonas aeruginosa ATCC 27853 MIC [4] [µg/mL]	Klebsiella pneumoniae SSI #3010 MIC [5] [µg/mL]	Acinetobacter baumannii DSM 30008 MIC [7] [µg/mL]	Hemolysis at 200 μg/mL [8] [%]
CN[C@H](C(=O)N[C@H]1CSSC[C@@H](C(=O)N[C@@H](CO)C(N)=O)NC(=O)[C@H](C(C)C)NC(=O)[C@@H]2CSSC[C@H](NC(=O)[C@H](Cc3ccc(O)cc3)NC1=O)C(=O)N[C@@H](CCC(=O)N[C@@H](CCN)C(=O)N[C@H](C(=O)N[C@@H](CCN)C(=O)N[C@H]1CCNC(=O)[C@H]([C@@H](C)O)NC(=O)[C@H](CCN)NC(=O)[C@H](CCN)NC(=O)[C@H](CC(C)C)NC(=O)[C@@H](CC(C)C)NC(=O)[C@H](CCN)NC1=O)[C@@H](C)O)C(=O)N[C@H](CCN)C(=O)N[C@@H](CCO)C(=O)N[C@@H](Cc1c[nH]c3ccccc13)C(=O)N2)C(C)C [Ex. 177] (I: H-[NMeV]CYCE[dDab][hSer]WCVCS-NH2 / II: [Dab]T[Dab][Dab][Dab][dL]L[Dab][Dab]T; disulfide I:2-I:11, I:4-I:9; amide I:5-II:N; lactam II:4-II:C)	1 (≈ 0.414 µM)	0.0625 (≈ 0.0259 µM)	0.125 (≈ 0.0517 µM)	0.125 (≈ 0.0517 µM)	0.25 (≈ 0.103 µM)	0.5 (≈ 0.207 µM)	0.0625 (≈ 0.0259 µM)	0.25 (≈ 0.103 µM)	–	–	–	–	<1
